Series [1] is described as follows: Stability determination of crystal forms (competitive slurry in isopropyl acetate). The class given is physicochemical. Conditions: Forms IV and VI stirred together in isopropyl acetate solution of compound of Formula I, room temperature, 36 hrs; resulted crystal form purely Form VI. As for the experimental part:
9.6 mg of the Crystalline Form IV and 1.97 mg of the Crystalline Form VI disclosed in this invention were then added into the solution and stirred at room temperature for 36 hrs. After centrifugation and drying, the resulted crystal form was determined to be purely the Crystalline Form VI.

The next series has as its system Erythropoietin (EPO). The series is described as follows: Erythropoietin (EPO) induction in normal mice. Type of series: in vivo. Conditions: male C57BL/6 mice, oral suspension in 0.5% CMC, serum 6 hours after dosing. The procedure:
Eight-week-old male C57BL/6 mice were dosed orally with a suspension of one crystal form of the compound in 0.5% CMC at 20, 60 and 100 mg/kg. Blood samples were obtained from the orbital venous plexus 6 hours after dosing and serum was collected (see also, Robinson A, et al., Gastroenterology. 2008, 134:145-55; Hsieh M M, et al., Blood. 2007, 110:2140-7). Samples were analyzed for EPO by electrochemiluminescence-based immunoassay (MSD) according to manufacturer's instructions. The inducted EPOs when the Crystalline Form VI in this invention was used in suspension were determined to be around 6, 297 and above 300 folds over that of the vehicle group without induction.

1 compound from patent US9206134B2, “Polymorphic forms of compounds as prolyl hydroxylase inhibitor, and uses thereof” (BEIJING BETTA PHARMACEUTICALS CO. LTD., priority 2011, dated 2015) can be followed below.

`Cc1nc(C(=O)NCC(=O)O)c(O)c2ccc(Oc3ccccc3)cc12` [Crystalline Form VI]: the “thermodynamic stability of crystal form” value in series [1] is reported as “thermodynamically the most stable crystal form”. Moreover, the “inducted EPO over that of the vehicle group” value in the series with Erythropoietin (EPO) (20 mg/kg) is recorded as “around 6 folds”; in the series on Erythropoietin (EPO) (60 mg/kg), ~297 folds; in the series on Erythropoietin (EPO) (100 mg/kg), “above 300 folds”.
